Data as given in patent publication US8007836B2, “Cleome spinosa extract used in pharmaceutical preparations and cosmetic compositions” (Pierre Fabre Dermo-Cosmetique, priority 2007, dated 2011).

Tested on: human hair follicles
Assay: Growth of cultivated entire human hair follicles from scalp ex vivo, 14 days of culture
Assay type: cell-based
Conditions: vs control non-treated follicles, minoxidil concentration not given
Experimental: Study of the effect of a Cleome spinosa extract on the growth of cultivated human hair follicles.
Evaluation of minoxidil, a reference molecule, was conducted in parallel.
Hair follicles originate from the human scalp from plastic surgery departments of hospitals or clinics (two donors).
The skin is shaved and washed in 6 baths of antibiotics. The follicles in the anagen phase are recognizable because they are very vascularized, and then isolated from the skin under a binocular magnifier and cleared of fat.
They are then incubated at 37° C. in 24-well culture dishes in an adequate culture medium containing the products to be tested.
The growth of the stem of the hair follicle is measured with plotting paper under a binocular magnifier on days 0, 4, 5, 7, 9, 12 or 14.
The determination of the growth and activity percentages of the hydroalcoholic extract of Cleome spinosa was carried out after 4 or 5, 7 or 8, 12 and 14 days of treatment of the hair follicles as compared with control non-treated follicles.
Notation: Tx is the time x after treatment • T0 is time 0 of the beginning of the treatment
The growth percentage is equal to (Tx measurement−T0 measurement)/T0 measurement×100
The activity of the treatment is calculated in the following way: [(Tx treated measurement−T0 treated measurement)−(Tx control measurement−T0 control measurement)]/(Tx control measurement−T0 control measurement)×100

With Nc1cc(N2CCCCC2)nc(N)[n+]1[O-] [Minoxidil, 2,4-diamino-6-piperidinopyrimidine-3-oxide] the “% of activity” value (D4/D5 of treatment) was 55%, the “% of activity” value (D8/D7 of treatment) was 41% and the “% of activity” value (D12 of treatment) was 21%. The “% of activity” value (D14 of treatment) was 17%.
